Laboratory results reported in PubChem BioAssay (NCI).
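Here, GI50 denotes the concentration required for 50% inhibition of growth. TGI: concentration producing complete growth inhibition.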

Key:
Test in all cases: NCI tumour cell line growth inhibition, 384-well format
[1] = tested on: HCC-2998 colon
[2] = tested on: MALME-3M melanoma
[3] = tested on: NCI-H226 lung
[4] = tested on: OVCAR-4 ovarian
[5] = tested on: MDA-MB-435 melanoma
[6] = tested on: SNB-75 CNS
[7] = tested on: COLO 205 colon
[8] = tested on: MDA-MB-231 breast
[9] = tested on: SF-268 CNS
[10] = tested on: HOP-92 NSCLC
[11] = tested on: KM12 colon
[12] = tested on: DU-145 prostate
[13] = tested on: ACHN renal
[14] = tested on: MCF7 breast
[15] = tested on: HCT-15 colon
[16] = tested on: UACC-62 melanoma
[17] = tested on: HT29 colon
[18] = tested on: MDA-MB-468 breast
[19] = tested on: TK-10 renal
[20] = tested on: SK-MEL-5 melanoma
[21] = tested on: BT-549 breast
[22] = tested on: NCI/ADR-RES ovarian
[23] = tested on: CAKI-1 renal
[24] = tested on: HS 578T breast
[25] = tested on: SK-OV-3 ovarian
[26] = tested on: U251 glioblastoma
[27] = tested on: SK-MEL-28 melanoma
[28] = tested on: OVCAR-5 ovarian
[29] = tested on: SF-295 CNS
[30] = tested on: A549 NSCLC
[31] = tested on: SN12C renal
[32] = tested on: SF-539 CNS
[33] = tested on: K-562 leukemia
[34] = tested on: UO-31 renal
[35] = tested on: RPMI-8226 leukemia
[36] = tested on: HL-60(TB) leukemia
[37] = tested on: NCI-H322M lung
[38] = tested on: CCRF-CEM leukemia
[39] = tested on: EKVX NSCLC
[40] = tested on: OVCAR-8 ovarian
[41] = tested on: IGROV1 ovarian
[42] = tested on: NCI-H23 lung
[43] = tested on: SNB-19 CNS
[44] = tested on: SW-620 colon
[45] = tested on: A498 renal
[46] = tested on: 786-0 renal
[47] = tested on: T-47D breast
[48] = tested on: M14 melanoma
[49] = tested on: RXF 393 renal
[50] = tested on: HOP-62 NSCLC
[51] = tested on: SR leukemia
[52] = tested on: OVCAR-3 ovarian
[53] = tested on: NCI-H460 NSCLC
[54] = tested on: UACC-257 melanoma
[55] = tested on: LOX IMVI melanoma
[56] = tested on: MOLT-4 leukemia
[57] = tested on: NCI-H522 lung
[58] = tested on: PC-3 prostate

CN(C)c1cc2c(cc1Sc1nc3c(N)nccc3n1CCNCC(C)(C)C)OCO2
GI50 [1]: 0.183 µM | TGI [1]: 0.419 µM | GI50 [2]: 0.241 µM | TGI [2]: 0.548 µM | GI50 [3]: 0.387 µM | TGI [3]: 13.2 µM | GI50 [4]: 0.324 µM | TGI [4]: 0.883 µM | GI50 [5]: 0.447 µM | TGI [5]: 15.3 µM | GI50 [6]: 0.273 µM | TGI [6]: 0.553 µM | GI50 [7]: 0.0664 µM | TGI [7]: 0.325 µM | GI50 [8]: 0.231 µM | TGI [8]: 0.608 µM | GI50 [9]: 0.221 µM | TGI [9]: 11.1 µM | GI50 [10]: 0.183 µM | TGI [10]: 0.503 µM | GI50 [11]: 0.171 µM | TGI [11]: 6.35 µM | GI50 [12]: 0.228 µM | TGI [12]: 1.13 µM | GI50 [13]: 0.376 µM | TGI [13]: 13.2 µM | GI50 [14]: 0.0895 µM | TGI [14]: 1.68 µM | GI50 [15]: 0.144 µM | TGI [15]: 8.64 µM | GI50 [16]: 0.226 µM | TGI [16]: 0.59 µM | GI50 [17]: 0.188 µM | TGI [17]: 2.26 µM | GI50 [18]: 0.307 µM | TGI [18]: 0.507 µM | GI50 [19]: 0.4 µM | TGI [19]: 5.55 µM | GI50 [20]: 0.0798 µM | TGI [20]: 1.45 µM | GI50 [21]: 0.118 µM | TGI [21]: 0.664 µM | GI50 [22]: 0.28 µM | TGI [22]: 0.625 µM | GI50 [23]: 0.449 µM | TGI [23]: 15.8 µM | GI50 [24]: 0.261 µM | TGI [24]: 0.769 µM | GI50 [25]: 0.231 µM | TGI [25]: 10.8 µM | GI50 [26]: 0.352 µM | TGI [26]: 1.42 µM | GI50 [27]: 0.327 µM | TGI [27]: 11.9 µM | GI50 [28]: 0.39 µM | TGI [28]: 9.75 µM | GI50 [29]: 0.218 µM | TGI [29]: 0.499 µM | GI50 [30]: 0.131 µM | TGI [30]: 12.1 µM | GI50 [31]: 0.221 µM | TGI [31]: 0.506 µM | GI50 [32]: 0.236 µM | TGI [32]: 0.541 µM | GI50 [33]: 0.199 µM | TGI [33]: 0.737 µM | GI50 [34]: 0.683 µM | TGI [34]: 19.5 µM | GI50 [35]: 0.135 µM | TGI [35]: 0.291 µM | GI50 [36]: 0.111 µM | TGI [36]: 0.241 µM | GI50 [37]: 0.299 µM | TGI [37]: 14.8 µM | GI50 [38]: 0.118 µM | TGI [38]: 0.312 µM | GI50 [39]: 0.344 µM | TGI [39]: 11.8 µM | GI50 [40]: 0.174 µM | TGI [40]: 0.349 µM | GI50 [41]: 0.27 µM | TGI [41]: 0.742 µM | GI50 [42]: 0.134 µM | TGI [42]: 0.467 µM | GI50 [43]: 0.423 µM | TGI [43]: 6.84 µM | GI50 [44]: 0.215 µM | TGI [44]: 0.715 µM | GI50 [45]: 0.0829 µM | TGI [45]: 11.9 µM | GI50 [46]: 0.28 µM | TGI [46]: 0.963 µM | GI50 [47]: 0.35 µM | TGI [47]: 10.5 µM | GI50 [48]: 0.303 µM | TGI [48]: 3.44 µM | GI50 [49]: 0.127 µM | TGI [49]: 0.348 µM | GI50 [50]: 0.292 µM | TGI [50]: 0.934 µM | GI50 [51]: 0.0628 µM | TGI [51]: 0.197 µM | GI50 [52]: 0.234 µM | TGI [52]: 0.631 µM | GI50 [53]: 0.138 µM | TGI [53]: 0.297 µM | GI50 [54]: 0.507 µM | TGI [54]: 4.14 µM | GI50 [55]: 0.177 µM | TGI [55]: 0.33 µM | GI50 [56]: 0.0589 µM | TGI [56]: 0.192 µM | GI50 [57]: 0.191 µM | TGI [57]: 0.377 µM | GI50 [58]: 0.229 µM | TGI [58]: 0.517 µM

NCC(=O)Nc1ccc(-n2nc(C(F)(F)F)cc2-c2ccc3c(ccc4ccccc43)c2)cc1
GI50 [1]: 1.06 µM | TGI [1]: 2.25 µM | GI50 [2]: 1.16 µM | TGI [2]: 2.39 µM | GI50 [3]: 1.6 µM | TGI [3]: 2.96 µM | GI50 [4]: 1.62 µM | TGI [4]: 2.98 µM | GI50 [5]: 1.11 µM | TGI [5]: 2.33 µM | GI50 [6]: 1.08 µM | TGI [6]: 2.29 µM | GI50 [7]: 0.535 µM | TGI [7]: 1.8 µM | GI50 [8]: 0.405 µM | TGI [8]: 2.01 µM | GI50 [9]: 1.05 µM | TGI [9]: 2.24 µM | GI50 [10]: 1.12 µM | TGI [10]: 2.33 µM | GI50 [11]: 1.14 µM | TGI [11]: 2.37 µM | GI50 [12]: 1.31 µM | TGI [12]: 2.61 µM | GI50 [13]: 1.18 µM | TGI [13]: 2.43 µM | GI50 [14]: 0.904 µM | TGI [14]: 2.12 µM | GI50 [15]: 0.0821 µM | TGI [15]: 1.75 µM | GI50 [16]: 1.23 µM | TGI [16]: 2.48 µM | GI50 [17]: 1.09 µM | TGI [17]: 2.29 µM | GI50 [18]: 1.53 µM | TGI [18]: 2.87 µM | GI50 [19]: 1.32 µM | TGI [19]: 2.61 µM | GI50 [20]: 1.12 µM | TGI [20]: 2.33 µM | GI50 [21]: 1.33 µM | TGI [21]: 2.62 µM | GI50 [22]: 1.07 µM | TGI [22]: 2.25 µM | GI50 [23]: 1.18 µM | TGI [23]: 2.43 µM | GI50 [24]: 1.76 µM | TGI [24]: 3.16 µM | GI50 [25]: 1.57 µM | TGI [25]: 2.92 µM | GI50 [26]: 1.19 µM | TGI [26]: 2.46 µM | GI50 [27]: 1.12 µM | TGI [27]: 2.32 µM | GI50 [28]: 1.66 µM | TGI [28]: 3.04 µM | GI50 [29]: 0.766 µM | TGI [29]: 2.04 µM | GI50 [30]: 1.04 µM | TGI [30]: 2.23 µM | GI50 [31]: 1.42 µM | TGI [31]: 2.74 µM | GI50 [32]: 1.16 µM | TGI [32]: 2.4 µM | GI50 [33]: 0.218 µM | TGI [33]: 1.52 µM | GI50 [34]: 1.39 µM | TGI [34]: 2.74 µM | GI50 [35]: 0.213 µM | TGI [35]: 0.686 µM | GI50 [36]: 0.272 µM | TGI [36]: 1.17 µM | GI50 [37]: 1.42 µM | TGI [37]: 2.74 µM | GI50 [38]: 0.218 µM | TGI [38]: 1.72 µM | GI50 [39]: 1.77 µM | TGI [39]: 3.17 µM | GI50 [40]: 1.13 µM | TGI [40]: 2.36 µM | GI50 [41]: 1.09 µM | TGI [41]: 2.3 µM | GI50 [42]: 1.76 µM | TGI [42]: 3.15 µM | GI50 [43]: 1.52 µM | TGI [43]: 2.86 µM | GI50 [44]: 0.965 µM | TGI [44]: 2.16 µM | GI50 [45]: 1.55 µM | TGI [45]: 2.9 µM | GI50 [46]: 1.02 µM | TGI [46]: 2.2 µM | GI50 [47]: 1.54 µM | TGI [47]: 2.88 µM | GI50 [48]: 1.27 µM | TGI [48]: 2.54 µM | GI50 [49]: 1.27 µM | TGI [49]: 2.53 µM | GI50 [50]: 1.13 µM | TGI [50]: 2.36 µM | GI50 [51]: 0.0306 µM | TGI [51]: 0.104 µM | GI50 [52]: 1.57 µM | TGI [52]: 2.92 µM | GI50 [53]: 0.296 µM | TGI [53]: 1.44 µM | GI50 [54]: 1.25 µM | TGI [54]: 2.51 µM | GI50 [55]: 0.396 µM | TGI [55]: 1.47 µM | GI50 [56]: 0.0441 µM | TGI [56]: 0.148 µM | GI50 [57]: 1.07 µM | TGI [57]: 2.27 µM | GI50 [58]: 1.19 µM | TGI [58]: 2.43 µM
